Data: the supplement of paper PMC10307832

Legend:
Test in all cases: relative viability (nuclei count vs DMSO), 5 days (fraction); higher = more cells survive
201T = system: 201T
Procedure, shortened: (§1)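 Lung cancer cell lines were seeded in 1536-well plates and dosed by pin tool the next day, with either a single drug or a fixed anchor-drug dose combined with five library-drug doses (not always all listed) spaced in √10 steps. Five days later, one step fixed the cells and stained their nuclei (final 0.05% Triton X-100, 1% formaldehyde, 1 ug/ml Hoechst), and nuclei were counted on 4× images. Relative viability is the nuclei count in treated wells divided by the count in vehicle wells, and each value is the median of duplicate plates.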

BEN = system: BEN
Procedure, shortened: as §1

EPLC-272H = system: EPLC-272H
Procedure, shortened: as §1

HCC-15 = system: HCC-15
Procedure, shortened: as §1

HCC-78 = system: HCC-78
Procedure, shortened: as §1

LCLC-97TM1 = system: LCLC-97TM1
Procedure, shortened: as §1

LU99A = system: LU99A
Procedure, shortened: as §1

NCI-H1355 = system: NCI-H1355
Procedure, shortened: as §1

NCI-H1395 = system: NCI-H1395
Procedure, shortened: as §1

NCI-H2009 = system: NCI-H2009
Procedure, shortened: as §1

NCI-H2085 = system: NCI-H2085
Procedure, shortened: as §1

NCI-H2126 = system: NCI-H2126
Procedure, shortened: as §1

NCI-H2228 = system: NCI-H2228
Procedure, shortened: as §1

NCI-H23 = system: NCI-H23
Procedure, shortened: as §1

NCI-H2405 = system: NCI-H2405
Procedure, shortened: as §1

NCI-H322M = system: NCI-H322M
Procedure, shortened: as §1

NCI-H460 = system: NCI-H460
Procedure, shortened: as §1

NCI-H647 = system: NCI-H647
Procedure, shortened: as §1

NCI-H838 = system: NCI-H838
Procedure, shortened: as §1

PC-14 = system: PC-14
Procedure, shortened: as §1

CN1CCN(CCOc2cc(OC3CCOCC3)c3c(Nc4c(Cl)ccc5c4OCO5)ncnc3c2)CC1 [Saracatinib] + CC1(C)CCC(c2ccc(Cl)cc2)=C(CN2CCN(c3ccc(C(=O)NS(=O)(=O)c4ccc(N[C@H](CCN5CCOCC5)CSc5ccccc5)c(S(=O)(=O)C(F)(F)F)c4)cc3)CC2)C1 [Navitoclax] (partner 0.5 µM)
relative viability (201T; first compound 0.02 µM): 1.29
relative viability (201T; first compound 0.2 µM): 1.16
relative viability (201T; first compound 0.6325 µM): 1.09
relative viability (201T; first compound 2 µM): 1.1
relative viability (BEN; first compound 0.02 µM): 0.0867
relative viability (BEN; first compound 0.2 µM): 0.0774
relative viability (BEN; first compound 0.6325 µM): 0.0714
relative viability (BEN; first compound 2 µM): 0.0584
relative viability (EPLC-272H; first compound 0.02 µM): 1.19
relative viability (EPLC-272H; first compound 0.2 µM): 0.976
relative viability (EPLC-272H; first compound 0.6325 µM): 1.19
relative viability (EPLC-272H; first compound 2 µM): 0.999
relative viability (HCC-15; first compound 0.02 µM): 0.655
relative viability (HCC-15; first compound 0.2 µM): 0.545
relative viability (HCC-15; first compound 0.6325 µM): 0.65
relative viability (HCC-15; first compound 2 µM): 0.558
relative viability (HCC-78; first compound 0.02 µM): 0.733
relative viability (HCC-78; first compound 0.2 µM): 0.779
relative viability (HCC-78; first compound 0.6325 µM): 1.08
relative viability (HCC-78; first compound 2 µM): 0.875
relative viability (LCLC-97TM1; first compound 0.02 µM): 0.422
relative viability (LCLC-97TM1; first compound 0.2 µM): 0.356
relative viability (LCLC-97TM1; first compound 0.6325 µM): 0.501
relative viability (LCLC-97TM1; first compound 2 µM): 0.46
relative viability (LU99A; first compound 0.02 µM): 0.818
relative viability (LU99A; first compound 0.2 µM): 0.629
relative viability (LU99A; first compound 0.6325 µM): 0.847
relative viability (LU99A; first compound 2 µM): 0.865
relative viability (NCI-H1355; first compound 0.02 µM): 0.988
relative viability (NCI-H1355; first compound 0.2 µM): 0.895
relative viability (NCI-H1355; first compound 0.6325 µM): 0.928
relative viability (NCI-H1355; first compound 2 µM): 0.901
relative viability (NCI-H1395; first compound 0.02 µM): 1.37
relative viability (NCI-H1395; first compound 0.2 µM): 0.902
relative viability (NCI-H1395; first compound 0.6325 µM): 1.09
relative viability (NCI-H1395; first compound 2 µM): 1.08
relative viability (NCI-H2009; first compound 0.02 µM): 1.15
relative viability (NCI-H2009; first compound 0.2 µM): 1.07
relative viability (NCI-H2009; first compound 0.6325 µM): 1.15
relative viability (NCI-H2009; first compound 2 µM): 1.16
relative viability (NCI-H2085; first compound 0.02 µM): 1.12
relative viability (NCI-H2085; first compound 0.2 µM): 1.05
relative viability (NCI-H2085; first compound 0.6325 µM): 1.19
relative viability (NCI-H2085; first compound 2 µM): 1.07
relative viability (NCI-H2126; first compound 0.02 µM): 0.876
relative viability (NCI-H2126; first compound 0.2 µM): 0.747
relative viability (NCI-H2126; first compound 0.6325 µM): 0.887
relative viability (NCI-H2126; first compound 2 µM): 0.684
relative viability (NCI-H2228; first compound 0.02 µM): 1.29
relative viability (NCI-H2228; first compound 0.2 µM): 0.831
relative viability (NCI-H2228; first compound 0.6325 µM): 1.24
relative viability (NCI-H2228; first compound 2 µM): 0.459
relative viability (NCI-H23; first compound 0.02 µM): 0.815
relative viability (NCI-H23; first compound 0.6325 µM): 0.847
relative viability (NCI-H23; first compound 2 µM): 0.52
relative viability (NCI-H2405; first compound 0.02 µM): 0.816
relative viability (NCI-H2405; first compound 0.2 µM): 0.874
relative viability (NCI-H2405; first compound 0.6325 µM): 0.401
relative viability (NCI-H2405; first compound 2 µM): 0.316
relative viability (NCI-H322M; first compound 0.02 µM): 1.28
relative viability (NCI-H322M; first compound 0.2 µM): 1.29
relative viability (NCI-H322M; first compound 0.6325 µM): 1.31
relative viability (NCI-H322M; first compound 2 µM): 1.13
relative viability (NCI-H460; first compound 0.02 µM): 1.16
relative viability (NCI-H460; first compound 0.2 µM): 0.457
relative viability (NCI-H460; first compound 0.6325 µM): 1.22
relative viability (NCI-H460; first compound 2 µM): 0.813
relative viability (NCI-H647; first compound 0.02 µM): 1.15
relative viability (NCI-H647; first compound 0.2 µM): 0.959
relative viability (NCI-H647; first compound 0.6325 µM): 1.18
relative viability (NCI-H647; first compound 2 µM): 0.764
relative viability (NCI-H838; first compound 0.02 µM): 1.15
relative viability (NCI-H838; first compound 0.2 µM): 1.02
relative viability (NCI-H838; first compound 0.6325 µM): 1.03
relative viability (NCI-H838; first compound 2 µM): 0.918
relative viability (PC-14; first compound 0.02 µM): 1.01
relative viability (PC-14; first compound 0.2 µM): 1.01
relative viability (PC-14; first compound 0.6325 µM): 0.417
relative viability (PC-14; first compound 2 µM): 0.198
